One experiment concerns Alternaria solani. Briefly: Antimicrobial activity against Alternaria solani. The format is functional, organism-based.
A further experiment concerns Pyricularia oryzae. Briefly: Antimicrobial activity against Pyricularia oryzae. It counts as functional, organism-based.
The subject of a further experiment is Staphylococcus aureus. Briefly: Antimicrobial activity against Staphylococcus aureus. The format is functional.
The next experiment has as its system Escherichia coli. Description: Antimicrobial activity against Escherichia coli. It counts as functional.

The structures appear in SMILES notation. Non-standard residues stand in square brackets, D forms with d. Residues, ends and D or L forms follow the SMILES beside them. *: point of attachment. Prolinol = OC[C@@H]1CCCN1*; Aib = CC(C)(N)C(=O)O

As to `CC[C@@H](C)[C@H](NC(=O)C(C)(C)NC(=O)[C@@H](NC(=O)C(C)(C)NC(=O)C(C)(C)NC(C)=O)C(C)C)C(=O)NC(C)(C)C(=O)NC(C)(C)C(=O)N[C@@H](CO)C(=O)NC(C)(C)C(=O)N1CCC[C@H]1CO` [ASPERELINE E], the IC50 with Alternaria solani and in the experiment on Pyricularia oryzae was more than 100 µg/mL throughout. In addition, the IC90 in the experiment with Staphylococcus aureus and in the experiment with Escherichia coli was more than 500 µg/mL throughout.

Consider `CC[C@@H](C)[C@H](NC(=O)C(C)(C)NC(=O)[C@@H](NC(=O)C(C)(C)NC(=O)C(C)(C)NC(C)=O)C(C)C)C(=O)NC(C)(C)C(=O)N[C@@H](C)C(=O)N[C@@H](C)C(=O)NC(C)(C)C(=O)N1CCC[C@H]1CO` [ASPERELINE C], for which the concentration for half-maximal inhibition (IC50) in the experiment with Alternaria solani and in the experiment on Pyricularia oryzae was more than 100 µg/mL throughout. For the same molecule, the IC90 in the experiment on Staphylococcus aureus and in the experiment on Escherichia coli was more than 500 µg/mL each time.

With `CC[C@@H](C)[C@H](NC(=O)C(C)(C)NC(=O)[C@@H](NC(=O)C(C)(C)NC(=O)[C@H](C)NC(C)=O)C(C)C)C(=O)NC(C)(C)C(=O)NC(C)(C)C(=O)N[C@@H](C)C(=O)NC(C)(C)C(=O)N1CCC[C@H]1CO` [ASPERELINE B], the IC50 with Alternaria solani and in the experiment with Pyricularia oryzae was more than 100 µg/mL each time. The IC90 in the experiment with Staphylococcus aureus and with Escherichia coli was more than 500 µg/mL throughout.

As to `CC[C@@H](C)[C@H](NC(=O)C(C)(C)NC(=O)[C@@H](NC(=O)[C@@H](NC(=O)C(C)(C)NC(C)=O)C(C)C)C(C)C)C(=O)NC(C)(C)C(=O)NC(C)(C)C(=O)N[C@@H](C)C(=O)NC(C)(C)C(=O)N1CCC[C@H]1CO` [ASPERELINE F], the concentration for half-maximal inhibition (IC50) with Alternaria solani and in the experiment with Pyricularia oryzae was more than 100 µg/mL each time. For the same molecule, the IC90 in the experiment on Staphylococcus aureus and in the experiment with Escherichia coli was more than 500 µg/mL in each case.

With `CC(=O)NC(C)(C)C(=O)NC(C)(C)C(=O)N[C@H](C(=O)NC(C)(C)C(=O)N[C@H](C(=O)NC(C)(C)C(=O)NC(C)(C)C(=O)N[C@@H](C)C(=O)NC(C)(C)C(=O)N1CCC[C@H]1CO)C(C)C)C(C)C` [ASPERELINE D] (Ac-[Aib][Aib]V[Aib]V[Aib][Aib]A[Aib]-Prolinol), the IC50 in the experiment on Alternaria solani and with Pyricularia oryzae was more than 100 µg/mL in each case. Moreover, the IC90 in the experiment with Staphylococcus aureus and with Escherichia coli was more than 500 µg/mL each time.

Turning to `CC[C@@H](C)[C@H](NC(=O)C(C)(C)NC(=O)[C@@H](NC(=O)C(C)(C)NC(=O)C(C)(C)NC(C)=O)C(C)C)C(=O)NC(C)(C)C(=O)NC(C)(C)C(=O)N[C@@H](C)C(=O)NC(C)(C)C(=O)N1CCC[C@H]1CO` [ASPERELINE A], the IC50 in the experiment with Alternaria solani and in the experiment with Pyricularia oryzae was more than 100 µg/mL throughout. Also, the IC90 in the experiment on Staphylococcus aureus and with Escherichia coli was more than 500 µg/mL in each case.

The record behind these values is ChEMBL document CHEMBL1152362, “Asperelines A-F, peptaibols from the marine-derived fungus Trichoderma asperellum” (J Nat Prod, 2009).
